The structures appear in SMILES notation.

The target in the experiment is T1, Androgen receptor (Homo sapiens) (UniProt P10275).
T1 sequence (whole entry): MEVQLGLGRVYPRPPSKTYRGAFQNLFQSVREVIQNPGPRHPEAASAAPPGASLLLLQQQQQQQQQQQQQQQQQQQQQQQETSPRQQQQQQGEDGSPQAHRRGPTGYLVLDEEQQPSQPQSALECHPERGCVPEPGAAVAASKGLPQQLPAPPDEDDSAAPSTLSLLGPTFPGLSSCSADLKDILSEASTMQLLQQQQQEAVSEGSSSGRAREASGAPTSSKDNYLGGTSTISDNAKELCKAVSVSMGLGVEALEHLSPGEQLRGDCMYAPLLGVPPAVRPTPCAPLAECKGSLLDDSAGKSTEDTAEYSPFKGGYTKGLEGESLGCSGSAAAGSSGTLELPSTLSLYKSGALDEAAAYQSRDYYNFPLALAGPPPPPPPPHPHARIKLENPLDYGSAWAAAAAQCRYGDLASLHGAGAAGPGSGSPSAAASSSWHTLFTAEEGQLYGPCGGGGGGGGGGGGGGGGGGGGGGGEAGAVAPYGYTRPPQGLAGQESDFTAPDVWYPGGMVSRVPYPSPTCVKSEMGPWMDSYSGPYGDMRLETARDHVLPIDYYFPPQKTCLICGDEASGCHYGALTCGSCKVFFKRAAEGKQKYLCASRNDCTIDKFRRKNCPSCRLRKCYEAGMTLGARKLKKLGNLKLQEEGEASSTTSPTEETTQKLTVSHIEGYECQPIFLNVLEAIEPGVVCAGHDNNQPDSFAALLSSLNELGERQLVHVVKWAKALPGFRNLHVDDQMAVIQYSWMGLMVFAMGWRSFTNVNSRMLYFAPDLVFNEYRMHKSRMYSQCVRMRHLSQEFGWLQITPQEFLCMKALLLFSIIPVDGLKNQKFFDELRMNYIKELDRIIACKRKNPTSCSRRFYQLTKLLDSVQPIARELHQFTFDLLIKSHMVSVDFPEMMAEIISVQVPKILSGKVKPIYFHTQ
The settings on record: CV-1.

Description: Relative stimulatory activity compared to 5-alpha-DHT in CV-1 cells expressing androgen receptor

For the compound `C[C@]12CC[C@@H]3C4CCC(=O)CC4C[C@@H](F)[C@H]3[C@@H]1CC[C@@H]2O` (some centres not stated), the RSA amounted to 44. With `CC12CC[C@@H]3C4CCC(=O)CC4C[C@@H](I)[C@H]3[C@@H]1CCC2O` (some centres not stated), the RSA is 13.

Source of the values: ChEMBL document CHEMBL1132232, “7alpha-Iodo and 7alpha-fluoro steroids as androgen receptor-mediated imaging agents” (J Med Chem, 1999).
